Reference: US11395857B2, “Radiolabeled melanocortin 1 receptor-specific alpha-melanocyte-stimulating hormone analogues for imaging or therapy” (PROVINCIAL HEALTH SERVICES AUTHORITY, priority 2018, dated 2022)

Legend:
[1] = tested on: B16F10 mouse melanoma; assay: SPECT/CT imaging of mice bearing B16F10 mouse melanoma; format: in vivo, C57BL/6J mice; settings: 24 h p.i.
Method: SPECT/CT imaging experiments were conducted using a preclinical U-SPECT-II/CT scanner (MILabs). For SPECT scans, each tumour-bearing mouse was injected with approximately 37 MBq of ^177Lu-labeled αMSH analogues via tail vein under anesthesia. After the injection, mice were allowed to recover and roam freely in their cages. At 1, 4, 24, and 120 h p.i., the mice were sedated again with 2% isoflurane inhalation and positioned in the scanner, and kept warm by a heating pad. A 3 min CT scan was conducted to acquire anatomical information, followed by a 60 min static emission scan in list mode with an extra ultrahigh-sensitivity multipinhole mouse collimator. The images were reconstructed using the ordered subset expectation maximization algorithm (4 iterations, 32 subsets) and a 1 mm post-processing Gaussian filter. The radioactivity in the SPECT scans were decay corrected to the injection time in the PMOD software, and converted to DICOM for quantitation and visualization in the Inveon Research Workplace software (Siemens). SPECT images of all six αMSH analogues radiolabeled with ^177Lu in mice bearing B16F10 mouse melanoma at 24 h p.i. are showing in FIG. 5. […] The sustained tumour uptake is particularly beneficial for radioligand therapy.

[2] = tested on: SK-MEL-1 human melanoma; assay: SPECT/CT imaging of mice bearing SK-MEL-1 human melanoma; format: in vivo, NRG mice; settings: 24 h p.i.
Method: SPECT/CT imaging experiments were conducted using the same conditions as described in Example 3. […] (FIG. 6).

SMILES: CCCC[C@H](NC(=O)CN1CCC(NC(=O)[C@H](CCCCNC(=O)CN2CCN(CC(=O)O)CCN(CC(=O)O)CCN(CC(=O)O)CC2)NC(=O)[C@H](CCC(=O)O)NC(=O)CCCc2ccc(I)cc2)CC1)C(=O)N[C@H]1CC(=O)NCCCC[C@@H](C(N)=O)N(C)C(=O)[C@H](Cc2c[nH]c3ccccc23)NC(=O)[C@H](CCCNC(=N)N)N(C)C(=O)[C@@H](Cc2ccccc2)NC(=O)[C@H](Cc2c[nH]cn2)NC1=O [^177Lu-labeled CCZ01118, metal not drawn]
- Tumour visualization with SPECT imaging [1]: clearly visualized
- Tumour uptake / retention in SPECT images [2]: lower tumour uptake was observed
